Reference: publication PMC11385697, “Bibacillin 1: a two-component lantibiotic from Bacillus thuringiensis” (RSC Chemical Biology, 2024)

Key:
[1] = SDS-PAGE analysis of oligomerization; format: physicochemical; conditions: in the presence of SDS
Method: To determine whether bibacillin 1 could quorum sense through an aggregation mechanism, the aggregation propensity of bibacillin 1 was analyzed using SDS-PAGE and dynamic light scattering (DLS). […] Since SDS can influence aggregation, the aggregation of bibacillin 1 was further investigated under SDS-free conditions using DLS (Fig. 6B). Bib1α exists in solution as aggregates that are 159 nm in diameter on average (PDI = 0.224) and Bib1β forms aggregates that are 291 nm in diameter on average (PDI = 0.384). […] Confirmation of this hypothesis will require in vitro studies with Bib1R1/R2.

[2] = test system: rabbit erythrocytes; assay: Agar diffusion hemolysis assay; format: cell-based; conditions: 300 pmol peptide spotted (3 μL of 100 μM in PBS); 5% (v/v) rabbit erythrocytes in 0.7% BHI agar; 37 °C, 16 h; mixtures 1 : 1
Method: Cytolysin was used as a positive control.
Defibrinated rabbit erythrocytes (Hemostat) were washed by 5-fold dilution in cold sterile PBS, followed by centrifugation at 1000g for 10 min and decanting. This process was repeated until the supernatant was clear. The washed erythrocytes were diluted to a concentration of 5% (v/v) in molten BHI containing 0.7% agar cooled to 50 °C and the mixture was immediately deposited onto a warm 2% BHI agar plate. After setting at room temperature for at least 30 min, 3 μL of peptide solution diluted in PBS to a concentration of 100 μM was deposited onto the agar plate and the plate was allowed to stand for another 30 min. The plate was then incubated at 37 °C for 16 h before documentation.

[3] = Dynamic light scattering of aggregates; format: physicochemical; conditions: phosphate buffered saline pH = 7.4, room temperature, total peptide 1 μM; for average diameter of aggregates (DLS): SDS-free
Method: Fig. 6 Exploring the quorum sensing mechanism of bibacillin 1. (A) Assays to assess whether bibacillin 1 triggers the CylR1/R2 system. A reporter strain of E. faecalis with LacZ expression under the control of the CylR1/R2 system was seeded into soft agar containing X-gal. Next, 300 pmol of Bib1α, Bib1β, and Bib1βDha either separately or as 1 : 1 mixtures were deposited onto the soft agar layer. Nisin (300 pmol) and CylLS′′ (30 pmol) were used as negative and positive controls, respectively. (B) Size distributions obtained using dynamic light scattering showing the oligomeric states of Bib1α, Bib1β, and Bib1α : Bib1β (1 : 1) in phosphate buffered saline (pH = 7.4) at room temperature. In each case, the total peptide concentration was 1 μM.
Enzyme mixtures used for molecular biology were purchased from New England BioLabs (NEB) (Ipswich, MA). Chemicals were purchased from Sigma-Aldrich (St. Louis, MO). Growth media were purchased from Becton, Dickinson and Company (Franklin Lake, NJ) or Fisher Scientific (Pittsburgh, PA). Single stranded DNA used as primers for PCR were purchased from Integrated DNA Technologies (Newark, NJ). Gene fragments were purchased from Twist Bioscience (San Francisco, CA). The sequences of primers and gene fragments can be found in Tables S2 and S3 (ESI ^†), respectively. Whole plasmid sequencing was performed by Plasmidsaurus using Oxford Nanopore Technology with custom analysis and annotation. Matrix-assisted laser desorption/ionization time-of-flight mass spectrometry (MALDI-TOF MS) analysis was performed on a Bruker UltrafleXtreme MALDI-TOF mass spectrometer (Bruker Daltonics) at the University of Illinois School of Chemical Sciences Mass Spectrometry. All samples analyzed by MALDI-TOF MS were co-crystallized with Super DHB MALDI matrix purchased from Sigma-Aldrich. Semi-preparative reversed phase HPLC (R-HPLC) was performed on an Agilent 1260 infinity II LC system. Fluorescence emission intensities and optical densities were determined using a Biotek Synergy H4. Dynamic light scattering (DLS) analysis was performed on a Zetasizer Nanoseries (Malvern Panalytical,). CylLS′′ and CylLL′′ were prepared using a previously described procedure.[36] Nisin was isolated from commercially available crude extracts of Lactococcus lactis (Sigma Aldrich).

[4] = test system: M. luteus ATCC 4698; assay: Time-kill assay; format: cell-based, Micrococcus luteus; conditions: total peptide 20 μM, 30 °C; for killing activity in time-kill assay: mixture 1 : 1
Method: The solutions were incubated at 30 °C with shaking. At each time point, 20 μL was removed from each culture and immediately streaked onto tryptic soy broth agar plates. The plates were incubated at 30 °C for 36–48 h and colonies were counted.

[5] = test system: rabbit erythrocytes; format: cell-based; conditions: total peptide concentration 2 μM; 1 h at 37 °C; mixture 1 : 1
Method: Solution phase hemolysis assays were conducted as described previously.[36]
Fig. S2. […] A) Hemoglobin release […]
erythrocytes were treated with 0.03% v/v triton X-100. Negative control contained only buffer. A total peptide concentration of 2 µM was used in each case. B) Extent of hemolysis after treating freshly washed rabbit erythrocytes with 1:1 of CylLS”:CylLL” at 37 ̊C for 1 h. Data was fit to a […]
(1 picture or pasted object on this page, not shown here)

[6] = test system: M. luteus ATCC 4698; assay: Membrane depolarization assay, DiSC3(5); conditions: DiSC3(5) fluorescence; M. luteus OD600 = 0.2; 30 min; peptides individually
Method: (B) DiSC3(5) fluorescence signal after incubation of M. luteus (OD600 = 0.2) with Bib1α or Bib1β individually or as a 1 : 1 mixture for 30 min. […] In all cases, a total peptide concentration of 5 μM was used.
The mixture was transferred to a 96-well black plate and the fluorescence of DiSC3(5) was measured using an excitation wavelength of 622 nm and an emission wavelength of 670 nm throughout the experiment. The fluorescence signal was measured for 8 min prior to the addition of peptides. After adding peptides, the fluorescence signal was monitored for 30 min. The maximum fluorescence signal achieved over the entire course of the experiment was considered to be a metric of membrane depolarization activity and was plotted as a function of peptide concentration.

[7] = In vitro pore formation assay, pyranine-encapsulated liposomes; conditions: total peptide 5 μM; for pore formation activity in liposomes: pH-dependent pyranine fluorescence, DOPC liposomes
Method: To investigate the lipid II-dependence of the pore formation activity of bibacillin 1, pyranine-encapsulated liposomes were prepared containing or lacking lipid II and pore formation was monitored via pH-dependent pyranine fluorescence.[79]
This assay was conducted as described elsewhere.[79]

[8] = test system: T1, lipid II consumption by E. coli PBP1b; assay: In vitro peptidoglycan synthesis assay with lipid II substrate (TLC); format: biochemical; conditions: 4 equivalents of peptide relative to lipid II; 30 °C, 2 h; thin layer chromatography; mixture 1 : 1
T1 construct: made in house
Method: A solution of lipid II (1.5 nmol) in 1 : 1 CHCl3 : MeOH that was prepared by a previously disclosed procedure[87] was added to a low binding Eppendorf tube and concentrated to remove any organic solvent. Triton X-100 (1% v/v, 2 μL) was added to the residue and the mixture was sonicated briefly before diluting with 37.5 μL of reaction buffer (20 mM MES, 2 mM MgCl2, 2 mM CaCl2, pH = 5.5). The solution was then transferred to a new low binding Eppendorf tube containing lanthipeptide. The mixture was vortexed and briefly sonicated to ensure dissolution. The mixtures were incubated for 10 min at room temperature before adding PBP1b (6 μg), which was prepared as described elsewhere,[77] and then incubated at 30 °C. After 2 h, 150 μL nBuOH : AcOH-pyridine (2 : 1) was added to the reaction mixture and the organic layer was removed, washed with 40 μL of water and then concentrated. The residue was dissolved in 12 μL of 1 : 1 MeOH : CHCl3 and 3 μL was deposited onto a silica gel plate. The TLC plate was developed in mobile phase (88 : 48 : 10 : 1 CHCl3 : MeOH : H2O : NH4OH) for 10 min before drying and staining the plate with cerium ammonium sulfate. The plate was documented immediately after the staining procedure was completed.

Row | Structure (SMILES) | oligomerization by SDS-PAGE [1] | hemolytic activity on an agar plate [2] | PDI of aggregates (DLS) [3] | average diameter of aggregates (DLS) [3] [nm] | time after which cells began to recover from treatment [4] [h] | killing activity in time-kill assay ([4]; about 10^6 CFU per mL) | hemolysis in solution (hemoglobin release, absorbance at 415 nm) [5] | membrane depolarization activity, all concentrations tested [6] | lipid II dependence of pore formation activity ([7]; DOPC liposomes containing or lacking 0.1 mol% lipid II) | pore formation activity in liposomes [7] | protection of lipid II from consumption by PBP1b [8] | size distribution of aggregates (DLS) [3] | time after treatment at which minimal cell counts were reached ([4]; about 10^6 CFU per mL) [h]
1 | C=C(NC(=O)[C@H](C)NC(=O)[C@@H]1CS[C@H](C)[C@H](N)C(=O)NC(=C)C(=O)N2CCC[C@H]2C(=O)N[C@@H](C)C(=O)N1)C(=O)N[C@@H](C)C(=O)N[C@@H](CCSC)C(=O)N[C@@H](CC(C)C)C(=O)N[C@@H](Cc1ccc(O)cc1)C(=O)N[C@@H](CC(C)C)C(=O)N[C@@H](CCC(N)=O)C(=O)NCC(=O)N[C@H](C(=O)NC(=CC)C(=O)N[C@H](C(=O)NC(=C)C(=O)N[C@@H](CC(C)C)C(=O)NCC(=O)N[C@@H](CC(C)C)C(=O)N[C@@H]1CSC[C@@H](C(=O)O)NC(=O)[C@H](Cc2c[nH]cn2)NC(=O)[C@H](CCSC)NC(=O)[C@H](CCCNC(=N)N)NC1=O)C(C)C)C(C)C [Bib1α] | oligomeric in the presence of SDS | showed hemolytic activity | 0.224 | 159 | 4 | bactericidal | did not induce hemolysis | did not show strong membrane depolarization activity | somewhat enhanced by the addition of lipid II | showed pore formation activity | incapable of protecting lipid II | – | –
2 | C=C(NC(=O)[C@H](Cc1ccccc1)NC(=O)CNC(=O)[C@H](CC(C)C)NC(=O)[C@H](C)NC(=O)[C@H](CC(C)C)NC(=O)CNC(=O)CNC(=O)CNC(=O)[C@@H](NC(=O)[C@H](C)NC(=O)[C@@H]1CS[C@H](C)[C@H](N)C(=O)NC(=CC)C(=O)N2CCC[C@H]2C(=O)N[C@@H](C(C)C)C(=O)N1)[C@@H](C)CC)C(=O)N[C@H](C(=O)N[C@@H]1CSC[C@@H](C(=O)O)NC(=O)[C@H](Cc2ccc(O)cc2)NC(=O)[C@H]([C@@H](C)CC)NC(=O)[C@H](CCCCN)NC1=O)[C@@H](C)CC [Bib1βDha] | – | did not show any hemolytic activity beyond that of a negative control | – | – | – | – | – | – | – | – | – | – | –
3 | CC=C1NC(=O)[C@@H](N)[C@@H](C)SC[C@@H](C(=O)N[C@@H](C)C(=O)N[C@H](C(=O)NCC(=O)NCC(=O)NCC(=O)N[C@@H](CC(C)C)C(=O)N[C@@H](C)C(=O)N[C@@H](CC(C)C)C(=O)NCC(=O)N[C@@H](Cc2ccccc2)C(=O)N[C@@H](CO)C(=O)N[C@H](C(=O)N[C@@H]2CSC[C@@H](C(=O)O)NC(=O)[C@H](Cc3ccc(O)cc3)NC(=O)[C@H]([C@@H](C)CC)NC(=O)[C@H](CCCCN)NC2=O)[C@@H](C)CC)[C@@H](C)CC)NC(=O)[C@H](C(C)C)NC(=O)[C@@H]2CCCN2C1=O [Bib1β] | oligomeric in the presence of SDS | showed hemolytic activity | 0.384 | 291 | – | bactericidal | did not induce hemolysis | did not show strong membrane depolarization activity | – | did not show pore formation activity | incapable of protecting lipid II | bimodal | 8
